The EC50 is the concentration giving half of the maximal effect. Lower therefore signals greater potency.

Results on one compound are retold here after patent US20100093018A1, “CELLS […] PROTEINS AND ASSAYS USING SUCH CELLS” (ACHILLION PHARMACEUTICALS, INC., priority 2007, published 2010).

One test concerns VX-950^R (A156T). The test is described as follows: Susceptibility of VX-950 resistant replicon cell line. The class given is cell-based, hepatitis C virus. The following applies: VX-950^R (A156T) versus Huh-9-13. A general note: Replicon systems follow genome replication, usually without infectious particles.
A further test concerns HCV replicon. The test is described as follows: HCV replicon assay (Example 1). It is filed as cell-based. The conditions noted are these: Hepatitis C virus; Huh-7 cells expressing the HCV replicon. The procedure:
The ability to inhibit viral replication of Hepatitis C can be tested using the HCV replicon expressed in cultured cells in which an HCV replicon construct has been incorporated. The HCV replicon system was described by Bartenschlager, et. al (Science, 285, pp. 110-113, 1999). The replicon system is predictive of in vivo activity against HCV; compounds that are active in humans uniformly evidence activity in the replicon assay.
In this assay HCV replicon containing cells are treated with different concentrations of the test compound to ascertain the ability of the test compound to suppress replication of the HCV replicon. As a positive control, HCV replicon-containing cells are treated with different concentrations of interferon alpha, a known inhibitor of HCV replication. The replicon assay system includes Neomycin Phosphotransferase (NPT) as a component of the replicon itself as a marker allowing convenient detection of the transcription of replicon gene products in the host cell. Cells in which the HCV replicon is actively replicating have high levels of NPT; the level of NPT is proportional to HCV replication. […] The NPT level of each sample may be measured using a captured ELISA. […]
HCV replicon-containing cells are examined under a microscope to ensure that cells growing well. […] The cells are counted. […]

Test [1] relates to replicon variants carrying either the C16S or A39V mutation. The test is described as follows: Summary of three approaches on mutant replicon variants. It is filed as cell-based, hepatitis C virus. The following applies: all three approaches. The procedure: To investigate the genetic basis of resistance to ACH-806 in the resistant replicon cellular lines, specifically the role of C16S and A39V in NS3, and 1585T 1 in NS5B, we introduced these mutations separately into a nonselectable replicon containing a luciferase reporter gene. Following the transfection of the parental replicon RNA molecule and the C16S, A39V and I585T variant replicon RNA molecules into Huh-7 cells, the replication capacity of all replicons was determined as described in Method and Materials. […]
To further confirm the role of C16S and A39V in conferring resistance to ACH-806, we introduced both mutations, separately, into a selectable replicon which carries the neo gene and the adaptive mutations that differ from the nonselectable replicon. Following transfection of the parental replicon RNA, the C16S replicon RNA and A39V replicon RNA into Huh-7 cells, the susceptibility of these three replicons to ACH-806, as evaluated by the number of colonies formed under the treatment of both G418 and ACH-806, was compared side by side. […]
A third approach, fragment cloning, was used to reinforce the role of the C16S mutation and to exclude the role of other nonconsensus mutations in conferring resistant to ACH-806. […] The replication capacity of this resulting replicon [Luc/N3-4AR(C16)] was 95% that of its parent [Luc/N3-4AR(S16)] determined as previously described. […]

Regarding `CCCCCOc1ccc(NC(=S)NC(=O)c2cccnc2)cc1C(F)(F)F` [ACH-806, 1-nicotinoyl-3-(4-(pentyloxy)-3-(trifluoromethyl)phenyl)thiourea], the “Fold change in EC50” value in the test with VX-950^R (A156T) was determined as 0.6. The compound also showed an EC50 with HCV replicon of 14 nM. Besides, in test [1], the “decrease in the susceptibility” value is listed as 10-15 fold.
